In patent publication US20070149456A1, “Epithelial sodium channel inhibiting agents and uses therefor” (University of Pittsburgh, priority 2005, published 2007):
Where two headings read alike, the source gives them in different places.

Biological target: T1, mouse ENaC (Mus musculus, UniProt Q61180+Q9WU38+Q9WU39, DEL206-231)
T1 construct: expressed in transfected cells; host or cells: Xenopus laevis oocytes (cRNA injection)
T1 sequence (Q61180 with tags, fused parts or gaps DEL206-231): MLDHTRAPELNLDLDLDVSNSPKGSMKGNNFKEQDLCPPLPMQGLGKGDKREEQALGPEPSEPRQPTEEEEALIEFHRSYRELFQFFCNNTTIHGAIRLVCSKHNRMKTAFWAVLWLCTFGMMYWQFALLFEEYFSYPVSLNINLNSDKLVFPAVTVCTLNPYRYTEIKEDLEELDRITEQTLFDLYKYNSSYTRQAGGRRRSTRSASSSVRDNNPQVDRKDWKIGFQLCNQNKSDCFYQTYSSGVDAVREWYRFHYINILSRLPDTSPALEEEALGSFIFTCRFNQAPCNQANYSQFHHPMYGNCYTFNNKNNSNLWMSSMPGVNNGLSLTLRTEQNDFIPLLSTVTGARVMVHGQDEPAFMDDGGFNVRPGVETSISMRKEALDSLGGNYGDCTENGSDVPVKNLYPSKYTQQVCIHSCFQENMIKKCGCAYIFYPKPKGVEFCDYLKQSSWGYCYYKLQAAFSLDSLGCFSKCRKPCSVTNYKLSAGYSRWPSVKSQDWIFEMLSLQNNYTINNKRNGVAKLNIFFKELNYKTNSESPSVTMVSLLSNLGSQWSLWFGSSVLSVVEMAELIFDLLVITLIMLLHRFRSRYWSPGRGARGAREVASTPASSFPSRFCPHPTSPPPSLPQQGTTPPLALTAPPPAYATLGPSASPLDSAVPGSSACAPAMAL
T1 sequence (Q9WU38 1-638): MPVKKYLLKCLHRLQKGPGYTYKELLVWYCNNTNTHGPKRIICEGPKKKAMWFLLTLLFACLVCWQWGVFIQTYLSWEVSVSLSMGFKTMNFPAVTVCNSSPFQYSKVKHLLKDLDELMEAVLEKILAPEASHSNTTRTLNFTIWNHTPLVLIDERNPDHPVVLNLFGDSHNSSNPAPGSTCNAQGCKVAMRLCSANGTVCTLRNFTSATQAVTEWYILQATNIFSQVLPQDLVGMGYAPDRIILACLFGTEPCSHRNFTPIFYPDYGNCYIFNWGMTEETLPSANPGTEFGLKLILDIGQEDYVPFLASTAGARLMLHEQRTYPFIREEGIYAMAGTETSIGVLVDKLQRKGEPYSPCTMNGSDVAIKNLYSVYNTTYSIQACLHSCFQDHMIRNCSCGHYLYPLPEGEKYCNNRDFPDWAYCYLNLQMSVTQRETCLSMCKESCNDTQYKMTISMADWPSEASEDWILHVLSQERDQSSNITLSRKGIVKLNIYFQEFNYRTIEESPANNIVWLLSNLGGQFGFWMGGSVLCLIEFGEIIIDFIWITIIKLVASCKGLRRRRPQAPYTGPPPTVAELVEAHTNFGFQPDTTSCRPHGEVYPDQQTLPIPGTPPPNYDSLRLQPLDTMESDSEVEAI
T1 sequence (Q9WU39 1-655): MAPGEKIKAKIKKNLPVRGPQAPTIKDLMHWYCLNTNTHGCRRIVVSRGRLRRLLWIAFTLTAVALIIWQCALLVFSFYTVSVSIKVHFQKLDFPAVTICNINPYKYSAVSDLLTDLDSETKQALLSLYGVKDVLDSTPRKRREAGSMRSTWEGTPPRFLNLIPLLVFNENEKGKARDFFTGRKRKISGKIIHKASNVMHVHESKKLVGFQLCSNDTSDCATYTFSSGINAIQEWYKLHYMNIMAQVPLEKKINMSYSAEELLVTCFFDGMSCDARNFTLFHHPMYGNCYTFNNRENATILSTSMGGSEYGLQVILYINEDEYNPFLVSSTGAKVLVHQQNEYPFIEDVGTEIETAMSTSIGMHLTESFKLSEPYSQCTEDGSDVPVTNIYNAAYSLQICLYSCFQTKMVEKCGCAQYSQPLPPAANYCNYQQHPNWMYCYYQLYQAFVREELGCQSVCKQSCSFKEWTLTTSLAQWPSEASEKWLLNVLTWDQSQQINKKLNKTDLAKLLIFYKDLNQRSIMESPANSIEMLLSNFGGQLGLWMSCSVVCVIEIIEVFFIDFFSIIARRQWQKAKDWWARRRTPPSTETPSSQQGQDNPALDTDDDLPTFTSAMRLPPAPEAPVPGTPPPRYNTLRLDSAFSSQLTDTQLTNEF
Assay: Two-electrode voltage clamp, amiloride-sensitive whole cell Na+ current in Xenopus oocytes expressing wild-type αβγ ENaC
Assay type: cell-based
Text: Oocyte Expression—cRNAs for α, β, γ mouse ENaC (wild-type and mutant) subunits and mouse prostasin were synthesized with T3 or T7 m-Message mMachineTM (Ambion, Austin, Tex.). Subunits carrying furin cleavage consensus site mutations and the corresponding wild-type subunits have amino-terminal HA and carboxyl-terminal V5 tags (Hughey, R. P., Bruns, J. B., Kinlough, C. L., Harkleroad, K. L., Tong, Q., Carattino, M. D., Johnson, J. P., Stockand, J. D., and Kleyman, T. R. (2004) J. Biol. Chem. 279, 18111-18114 18). Stage V-VI Xenopus laevis oocytes were pretreated with 1.5 mg/ml of type IV collagenase and injected with 0.5-2 ng of cRNA/subunit. Injected oocytes were maintained as previously reported (Carattino, M. D., Hill, W. G., and Kleyman, T. R. (2003), Arachidonic Acid Regulates Surface Expression of Epithelial Sodium Channels, J Biol. Chem. 278, 36202-36213 29).
Two-electrode Voltage Clamp—Two-electrode voltage clamp (TEV) was performed as previously described (Carattino, M. D., Hill, W. G., and Kleyman, T. R. (2003) J Biol. Chem. 278, 36202-36213 29). The extracellular solution (TEV solution) was (in mM): 110 NaCl, 2 KCl, 1.54 CaCl2, 10 HEPES, pH 7.4, or otherwise as indicated. […] Experiments with oocytes co-expressing ENaC and prostasin and the corresponding controls were performed in the presence of aprotinin (1 μM) to impede any potential degradation of α-26 by prostasin.
Data and Statistical Analyses—and mean time of inhibition are expressed as the mean with a 95% confidence interval (CI); otherwise, data were expressed as the mean ±S.E. (n), where “n” equals the number of independent experiments analyzed. IC50 was estimated from normalized currents plotted as a function of the peptide concentration fitted, as shown in Equation 1 y=t/(1+10^(logX−log/C50)) (Eq. 1) where y is the response variable, X is the concentration of peptide, and IC50 is the concentration of peptide that provokes a response half way between the baseline (t) and maximum response. […] Results

Question: For “Ac-DLRGALPHPLQRLRTPPPPNPARSAR-NH2 [α-26]”, which Ki is on record?
Answer: Its Ki is roughly 3000 nM.

Question: What about the “time required to achieve half maximal inhibition” value (1 μM α-26) of the same substance?
Answer: Its value is 42 s.

Question: And the IC50 (amiloride-sensitive current, 3 min perfusion with peptide (FIG. 3A), read-out: IC50, inhibition of wild-type αβγ)?
Answer: The IC50 was 2800 nM.

Question: And the IC50 (holding potential −20 mV, read-out: IC50 at holding potential −20 mV)?
Answer: The IC50 was 2900 nM.

Question: What about the IC50 (holding potential −100 mV, read-out: IC50 at holding potential −100 mV) of the same substance?
Answer: Its IC50 is 2900 nM.

Question: And the reversibility of block (α-26 1 μM, washout (FIG. 3D))?
Answer: The reversibility of block was “reversible inhibitor”.
